Drawing on ChEMBL document CHEMBL3244163, “Antifungal agents. 5. Chemical modification of antibiotics from Polyangium cellulosum var. fulvum. Alcohol, ketone, aldehyde, and oxime analogues of ambruticin” (1979), this text covers Activity and MIC for 22 compounds.

One assay relates to Streptococcus pyogenes. The assay is described as follows: Antibacterial activity against Streptococcus pyogenes by standard broth dilution technique. Type of assay: functional, organism-based. (In general: Dilution methods test growth across graded concentrations, often in twofold steps.)
Another assay has as its system Candida albicans. The assay is described as follows: Antifungal activity against Candida albicans by standard broth dilution technique. The class given is functional, organism-based.
For a further assay, the system named is Histoplasma capsulatum. The experiment in a line: Antifungal activity against Histoplasma capsulatum assessed as growth inhibition after 3 days by standard broth dilution technique. Type of assay: functional. The following applies: 72 h.
A short description of assay [1]: Antifungal activity against Microsporum fulvum assessed as growth inhibition after 3 days by standard broth dilution technique. The class given is functional. The following applies: Arthroderma fulvum.

Structures are written as SMILES. Values after ≈ are worked out from the molar mass of the structure shown. Active and inactive are the calls of the source.

Take `CC[C@H]1O[C@@H](/C(C)=C/[C@H](C)/C=C/[C@H]2[C@@H](C)[C@@H]2/C=C/[C@@H]2O[C@H](CC(=O)OC)C[C@H](O)[C@H]2O)CC=C1C`: the outcome in the assay on Streptococcus pyogenes and with Candida albicans was inactive. Also, the MIC (in the assay with Histoplasma capsulatum; in assay [1]) was 0.39 µg/mL (≈ 0.798 µM) in each case.

On to `CC[C@H]1O[C@@H](/C(C)=C/[C@H](C)/C=C/[C@H]2[C@@H](C)[C@@H]2/C=C/[C@@H]2O[C@H](CC(=O)O)C/C(=N/O)[C@H]2O)CC=C1C`, for which the result with Streptococcus pyogenes and with Candida albicans was inactive. Further, the minimum inhibitory concentration (MIC) (as a rule, the smallest concentration in the dilution series that meets the test's criterion for growth inhibition) in the assay on Histoplasma capsulatum was 3.12 µg/mL (≈ 6.4 µM); in assay [1], 1.56 µg/mL (≈ 3.2 µM).

As for `CC[C@H]1O[C@@H](/C(C)=C/[C@H](C)/C=C/[C@H]2[C@@H](C)[C@@H]2/C=C/[C@@H]2O[C@H](CCOC(C)=O)C[C@H](OC(C)=O)[C@H]2OC(C)=O)CC=C1C`, the outcome in the assay on Streptococcus pyogenes and in the assay on Candida albicans was inactive. For the same compound, the results for the MIC (in the assay on Histoplasma capsulatum; in assay [1]) were 50 µg/mL (≈ 85.2 µM) and > 50 µg/mL, respectively.

As to `CC[C@H]1O[C@@H](/C(C)=C/[C@H](C)/C=C/[C@H]2[C@@H](C)[C@@H]2/C=C/[C@@H]2O[C@H](CCO)C[C@H](O)[C@H]2O)CC=C1C`, the result in the assay on Streptococcus pyogenes and in the assay on Candida albicans was inactive. The minimum inhibitory concentration (MIC) (with Histoplasma capsulatum; in assay [1]) was 0.098 µg/mL (≈ 0.213 µM) in each case.

For `CC[C@H]1O[C@@H](/C(C)=C/[C@H](C)/C=C/[C@H]2[C@@H](C)[C@@H]2/C=C/[C@@H]2O[C@H](CC(O)(C(C)C)C(C)C)C[C@H](O)[C@H]2O)CC=C1C`, the result in the assay on Streptococcus pyogenes and with Candida albicans was inactive. Moreover, the MIC in the assay with Histoplasma capsulatum is 50 µg/mL (≈ 91.8 µM); in assay [1] it was > 50 µg/mL.

Regarding `CC[C@H]1O[C@@H](/C(C)=C/[C@H](C)/C=C/[C@H]2[C@@H](C)[C@@H]2/C=C/[C@@H]2O[C@H](CC(=O)O)C[C@H](O)[C@H]2O)CC=C1C` [AMBRUTICIN], the result with Streptococcus pyogenes and with Candida albicans was inactive. The MIC in the assay with Histoplasma capsulatum stood at 0.39 µg/mL (≈ 0.822 µM); in assay [1] it was 0.098 µg/mL (≈ 0.206 µM).

Regarding `CCC(=O)C[C@@H]1C[C@H](O)[C@@H](O)[C@H](/C=C/[C@H]2[C@H](C)[C@@H]2/C=C/[C@@H](C)/C=C(\C)[C@H]2CC=C(C)[C@@H](CC)O2)O1`, the result in the assay with Streptococcus pyogenes and with Candida albicans was inactive. The MIC (in the assay with Histoplasma capsulatum; in assay [1]) was 0.78 µg/mL (≈ 1.6 µM) each time.

For `CC[C@H]1O[C@@H](/C(C)=C/[C@H](C)/C=C/[C@H]2[C@@H](C)[C@@H]2/C=C/[C@@H]2O[C@H](CC(O)(CC)CC)C[C@H](O)[C@H]2O)CC=C1C`, the result in the assay with Streptococcus pyogenes and in the assay on Candida albicans was inactive. The values for the minimal inhibitory concentration (MIC) (in the assay with Histoplasma capsulatum; in assay [1]) were 1.56 µg/mL (≈ 3.02 µM) and 3.12 µg/mL (≈ 6.04 µM), respectively.

Consider `CC[C@H]1O[C@@H](/C(C)=C/[C@H](C)/C=C/[C@H]2[C@@H](C)[C@@H]2/C=C/[C@@H]2O[C@H](CC=O)C[C@H](O)[C@H]2O)CC=C1C`, for which the outcome in the assay on Streptococcus pyogenes and in the assay on Candida albicans was inactive. Moreover, the results for the minimal inhibitory concentration (MIC) (with Histoplasma capsulatum; in assay [1]) were 0.78 µg/mL (≈ 1.7 µM) and 0.098 µg/mL (≈ 0.214 µM), respectively.

For `CC[C@H]1O[C@@H](/C(C)=C/[C@H](C)/C=C/[C@H]2[C@@H](C)[C@@H]2/C=C/[C@@H]2O[C@H](CC(=O)C(C)(C)C)C[C@H](O)[C@H]2O)CC=C1C`, the outcome in the assay with Streptococcus pyogenes and in the assay on Candida albicans was inactive. The MIC in the assay on Histoplasma capsulatum is 12.5 µg/mL (≈ 24.3 µM); in assay [1] it was > 50 µg/mL.

Regarding `CC[C@H]1O[C@@H](/C(C)=C/[C@H](C)/C=C/[C@H]2[C@@H](C)[C@@H]2/C=C/[C@@H]2O[C@H](CC(=O)OC)CC(=O)[C@H]2O)CC=C1C`, the outcome in the assay on Streptococcus pyogenes and in the assay on Candida albicans was inactive. Besides, the MIC in the assay with Histoplasma capsulatum was determined as 0.39 µg/mL (≈ 0.801 µM); in assay [1], 0.195 µg/mL (≈ 0.401 µM).

Take `CC[C@H]1O[C@@H](/C(C)=C/[C@H](C)/C=C/[C@H]2[C@@H](C)[C@@H]2/C=C/[C@@H]2O[C@H](CC(C)(C)O)C[C@H](O)[C@H]2O)CC=C1C`: the outcome in the assay on Streptococcus pyogenes and with Candida albicans was inactive. For the same compound, the MIC with Histoplasma capsulatum is 0.78 µg/mL (≈ 1.6 µM); in assay [1], 0.195 µg/mL (≈ 0.399 µM).

For the compound `CC[C@H]1O[C@@H](/C(C)=C/[C@H](C)/C=C/[C@H]2[C@@H](C)[C@@H]2/C=C/[C@@H]2O[C@H](CC(=O)OC)C[C@@H](O)[C@H]2O)CC=C1C`, the result in the assay with Streptococcus pyogenes and with Candida albicans was inactive. Further, the MIC (with Histoplasma capsulatum; in assay [1]) was 0.39 µg/mL (≈ 0.798 µM) throughout.

For `CC[C@H]1O[C@@H](/C(C)=C/[C@H](C)/C=C/[C@H]2[C@@H](C)[C@@H]2/C=C/[C@@H]2O[C@H](CCOC(=O)Nc3ccccc3)C[C@H](OC(=O)Nc3ccccc3)[C@H]2OC(=O)Nc2ccccc2)CC=C1C`, the result in the assay on Streptococcus pyogenes and with Candida albicans was inactive. Also, the MIC in assay [1] is > 50 µg/mL.

With `CC[C@H]1O[C@@H](/C(C)=C/[C@H](C)/C=C/[C@H]2[C@@H](C)[C@@H]2/C=C/[C@@H]2O[C@H](CCO)C/C(=N\O)[C@H]2O)CC=C1C`, the outcome in the assay on Streptococcus pyogenes and in the assay with Candida albicans was inactive. Moreover, the figures for the MIC (in the assay on Histoplasma capsulatum; in assay [1]) were 0.098 µg/mL (≈ 0.207 µM) and 0.195 µg/mL (≈ 0.412 µM), respectively.

`CC[C@H]1O[C@@H](/C(C)=C/[C@H](C)/C=C/[C@H]2[C@@H](C)[C@@H]2/C=C/[C@@H]2O[C@H](CC(=O)O)C[C@@H](O)[C@H]2O)CC=C1C`: the result in the assay on Streptococcus pyogenes and in the assay with Candida albicans was inactive. Further, the minimum inhibitory concentration (MIC) with Histoplasma capsulatum was determined as 0.78 µg/mL (≈ 1.64 µM); in assay [1], 0.195 µg/mL (≈ 0.411 µM).

For the compound `CC[C@H]1O[C@@H](/C(C)=C/[C@H](C)/C=C/[C@H]2[C@@H](C)[C@@H]2/C=C/[C@@H]2O[C@H](CCO)C[C@@H](O)[C@H]2O)CC=C1C`, the result in the assay on Streptococcus pyogenes and in the assay on Candida albicans was inactive. For the same compound, the MIC (in the assay on Histoplasma capsulatum; in assay [1]) was 0.39 µg/mL (≈ 0.847 µM) throughout.

In the case of `CC[C@H]1O[C@@H](/C(C)=C/[C@H](C)/C=C/[C@H]2[C@@H](C)[C@@H]2/C=C/[C@@H]2O[C@H](CCO)C[C@@](O)(c3ccccc3)[C@H]2O)CC=C1C`, the result in the assay with Streptococcus pyogenes and with Candida albicans was inactive. The MIC with Histoplasma capsulatum was found to be 3.12 µg/mL (≈ 5.81 µM); in assay [1], 6.25 µg/mL (≈ 11.6 µM).

With `CCC(O)C[C@@H]1C[C@H](O)[C@@H](O)[C@H](/C=C/[C@H]2[C@H](C)[C@@H]2/C=C/[C@@H](C)/C=C(\C)[C@H]2CC=C(C)[C@@H](CC)O2)O1` (stereo partly drawn), the outcome in the assay with Streptococcus pyogenes and with Candida albicans was inactive. Moreover, the MIC in the assay on Histoplasma capsulatum was 0.78 µg/mL (≈ 1.6 µM).

Take `CC[C@H]1O[C@@H](/C(C)=C/[C@H](C)/C=C/[C@H]2[C@@H](C)[C@@H]2/C=C/[C@@H]2O[C@H](CC(=O)OC)C/C(=N/O)[C@H]2O)CC=C1C`: the outcome in the assay with Streptococcus pyogenes and in the assay with Candida albicans was inactive. For the same compound, the MIC in the assay with Histoplasma capsulatum came to 0.78 µg/mL (≈ 1.55 µM).

Take `CC[C@H]1O[C@@H](/C(C)=C/[C@H](C)/C=C/[C@H]2[C@@H](C)[C@@H]2/C=C/[C@@H]2O[C@H](CCOC(=O)Nc3ccc(Cl)cc3)C[C@H](OC(=O)Nc3ccc(Cl)cc3)[C@H]2OC(=O)Nc2ccc(Cl)cc2)CC=C1C`: the result with Streptococcus pyogenes and in the assay on Candida albicans was inactive. Moreover, in assay [1], the MIC is > 50 µg/mL.

On to `CC[C@H]1O[C@@H](/C(C)=C/[C@H](C)/C=C/[C@H]2[C@@H](C)[C@@H]2/C=C/[C@@H]2O[C@H](CCOC(=O)Nc3ccc(Br)cc3)C[C@H](OC(=O)Nc3ccc(Br)cc3)[C@H]2OC(=O)Nc2ccc(Br)cc2)CC=C1C`, for which the result in the assay on Streptococcus pyogenes and with Candida albicans was inactive. Further, the minimal inhibitory concentration (MIC) in assay [1] is > 50 µg/mL.
